The record followed here is ChEMBL document CHEMBL5244281, “Tackling multidrug-resistant Staphylococcus aureus by natural products and their analogues acting as NorA efflux pump inhibitors” (Bioorg Med Chem, 2023).

Test [1] has as its system Staphylococcus aureus. The experiment in a line: Antibacterial activity against norfloxacin resistant Staphylococcus aureus 1199B overexpressing NorA assessed as bacterial growth inhibition. It is filed as functional.
The subject of test [2] is Staphylococcus aureus. The test is described as follows: Antibacterial activity against norfloxacin resistant Staphylococcus aureus 1199 assessed as bacterial growth inhibition. The test is classed as functional.
The subject of test [3] is Staphylococcus aureus. The test is described as follows: Antibacterial activity against norfloxacin resistant Staphylococcus aureus IS-58 overexpressing TetK efflux pump gene assessed as bacterial growth inhibition incubated for 24 hrs by CLSI protocol based microdilution method. It is filed as functional. A general note: Dilution methods test growth across graded concentrations, often in twofold steps.

For test [4], the system named is Staphylococcus aureus. The experiment in a line: Antibacterial activity against norfloxacin resistant Staphylococcus aureus 1199B overexpressing NorA efflux pump gene assessed as bacterial growth inhibition incubated for 24 hrs by CLSI protocol based microdilution method. It is filed as functional.
Test [5] concerns Staphylococcus aureus. The experiment in a line: Antibacterial activity against norfloxacin resistant Staphylococcus aureus RN4220 overexpressing […] efflux pump gene assessed as bacterial growth inhibition incubated for 24 hrs by CLSI protocol based microdilution method. It is filed as functional.
Test [6] has as its target T1, Quinolone resistance protein NorA (Staphylococcus aureus) (UniProt P0A0J7).
T1 sequence (whole entry): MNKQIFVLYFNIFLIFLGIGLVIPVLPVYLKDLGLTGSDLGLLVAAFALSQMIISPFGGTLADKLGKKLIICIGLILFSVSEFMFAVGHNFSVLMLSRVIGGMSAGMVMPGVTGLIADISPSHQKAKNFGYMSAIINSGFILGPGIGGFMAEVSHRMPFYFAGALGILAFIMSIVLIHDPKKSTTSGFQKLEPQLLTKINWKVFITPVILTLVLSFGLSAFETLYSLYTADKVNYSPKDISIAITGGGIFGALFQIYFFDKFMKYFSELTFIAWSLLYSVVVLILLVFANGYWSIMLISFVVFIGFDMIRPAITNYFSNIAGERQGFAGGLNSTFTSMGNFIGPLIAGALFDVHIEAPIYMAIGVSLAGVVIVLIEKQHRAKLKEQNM
The test is described as follows: Potentiation of norfloxacin-induced inhibition of NorA efflux pump in Staphylococcus aureus 1199A assessed as reduction in norfloxacin MIC at 1/8 times of MIC incubated for 24 hrs by resazurin based broth microdilution method (Rvb= […] ug/ml). (In general: Resazurin is reduced to fluorescent resorufin, in cell work by metabolically active cells.)

Test [7] has as its system Staphylococcus aureus. The experiment in a line: Antibacterial activity against norfloxacin resistant Staphylococcus aureus 1199B overexpressing NorA assessed as bacterial growth inhibition incubated for 24 hrs by resazurin based broth microdilution method. It is filed as functional.
Test [8] has as its system Staphylococcus aureus. The test is described as follows: Antibacterial activity against norfloxacin resistant Staphylococcus aureus 1199 assessed as bacterial growth inhibition incubated for 24 hrs by resazurin based broth microdilution method. It is filed as functional.
In test [9] the target is T1, Quinolone resistance protein NorA (Staphylococcus aureus). The test is described as follows: Potentiation of norfloxacin-induced inhibition of NorA efflux pump in Staphylococcus aureus 1199B overexpressing NorA efflux pump assessed as reduction in norfloxacin MIC at 1/8 times of MIC incubated for 24 hrs by resazurin based broth microdilution method (Rvb= 128 ug/ml).

The target is the same in test [10]. The test is described as follows: Potentiation of EtBr-induced inhibition of NorA efflux pump in Staphylococcus aureus 1199B overexpressing NorA efflux pump assessed as reduction in EtBr MIC at 1/8 times of MIC incubated for 24 hrs by resazurin based broth microdilution method (Rvb= 32 ug/ml).
Test [11] shares this target. The experiment in a line: Potentiation of EtBr-induced inhibition of NorA efflux pump in Staphylococcus aureus 1199A assessed as reduction in EtBr MIC at 1/8 times of MIC incubated for 24 hrs by resazurin based broth microdilution method (Rvb=32 ug/ml).
Test [12] relates to Staphylococcus aureus. The experiment in a line: Synergistic antibacterial activity against Staphylococcus aureus 1199B overexpressing NorA gene assessed as fractional inhibitory concentration index at 2 ug/ml in presence of norfloxacin. The conditions noted are these: dose 2 µg/ml. The test is classed as functional.
The subject of test [13] is Staphylococcus aureus. The test is described as follows: Antibacterial activity against methicillin-resistant Staphylococcus aureus 1199B overexpressing NorA gene assessed as bacterial growth inhibition. It is filed as functional.
Test [14] has as its system Staphylococcus aureus. The experiment in a line: Antibacterial activity against Staphylococcus aureus 1199B overexpressing NorA assessed as bacterial growth inhibition incubated for 18 hrs by MTT assay. The test is classed as functional. (In general: Tetrazolium dyes change colour on reduction, which living cells bring about.)
Test [15] has as its system Staphylococcus aureus. The test is described as follows: Antibacterial activity against Staphylococcus aureus RN4220 assessed as bacterial growth inhibition incubated for 18 hrs by MTT assay. It is filed as functional.
In test [16] the test system is Staphylococcus aureus. The test is described as follows: Synergistic antibacterial activity against Staphylococcus aureus 1199B overexpressing NorA assessed as fractional Inhibitory concentration index at 64 ug/ml in presence of norfloxacin by broth dilution method. It is filed as functional. The conditions noted are these: dose 64 µg/ml.
For test [17], the target named is T1, Quinolone resistance protein NorA (Staphylococcus aureus). As to conditions: 1199B, dose 64.0 µg/ml.
The subject of test [18] is Staphylococcus aureus. The test is described as follows: Antibacterial activity against tetracycline-resistant Staphylococcus aureus XU212 assessed as bacterial growth inhibition incubated for 18 hrs by MTT assay. It is filed as functional.
Test [19] relates to Staphylococcus aureus. The experiment in a line: Antibacterial activity against Staphylococcus aureus EMRSA-15 assessed as bacterial growth inhibition incubated for 18 hrs by MTT assay. It is filed as functional.
Test [20] has as its system Staphylococcus aureus. The experiment in a line: Antibacterial activity against Staphylococcus aureus ATCC25923 assessed as bacterial growth inhibition incubated for 18 hrs by MTT assay. It is filed as functional.
Test [21] deals with Staphylococcus aureus. The experiment in a line: Antibacterial activity against Staphylococcus aureus EMRSA-16 assessed as bacterial growth inhibition incubated for 18 hrs by MTT assay. The test is classed as functional.
Test [22] has as its target T1, Quinolone resistance protein NorA (Staphylococcus aureus). The test is described as follows: Potentiation of EtBr-induced inhibition of NorA efflux in Staphylococcus aureus 1199B overexpressing NorA assessed as reduction in EtBr MIC at 256 ug/ml incubated for 24 hrs by resazurin based assay (Rvb= 32 ug/ml). The conditions noted are these: dose 256.0 µg/ml.
The test system of test [23] is Staphylococcus aureus. The experiment in a line: Antibacterial activity against norfloxacin resistant Staphylococcus aureus 1199B overexpressing NorA assessed as bacterial growth inhibition incubated for 24 hrs by resazurin based microdilution assay. It is filed as functional.
In test [24] the test system is Staphylococcus aureus. The experiment in a line: Antibacterial activity against Staphylococcus aureus SA10 assessed as bacterial growth inhibition incubated for 24 hrs by resazurin based microdilution assay. The test is classed as functional.
For test [25], the system named is Escherichia coli. The experiment in a line: Antibacterial activity against Escherichia coli ATCC […] assessed as bacterial growth inhibition incubated for 24 hrs by resazurin based microdilution assay. It is filed as functional.
In test [26] the test system is Staphylococcus aureus. The experiment in a line: Antibacterial activity against Staphylococcus aureus 1199 assessed as bacterial growth inhibition incubated for 24 hrs by resazurin based microdilution assay. It is filed as functional.
Test [27] relates to Staphylococcus aureus. The experiment in a line: Antibacterial activity against Staphylococcus aureus ATCC 25923 assessed as bacterial growth inhibition incubated for 24 hrs by resazurin based microdilution assay. The test is classed as functional.
In the next test the test system is Candida albicans. The experiment in a line: Antifungal activity against Candida albicans NEWP031 assessed as bacterial growth inhibition incubated for 24 hrs by resazurin based microdilution assay. The test is classed as functional.
Test [28] addresses T1, Quinolone resistance protein NorA (Staphylococcus aureus). As to conditions: 1199B, dose 128.0 µg/ml, time 24.0 hrs.
In test [29] the test system is Escherichia coli. The test is described as follows: Potentiation of gentamicin-induced antibacterial activity against Escherichia coli 06 assessed as gentamicin MIC at 1/8 times of MIC (Rvb= 322 ug/ml). The test is classed as functional.
Test [30] deals with T1, Quinolone resistance protein NorA (Staphylococcus aureus). The test is described as follows: Potentiation of EtBr-induced inhibition of NorA efflux pump in Staphylococcus aureus 1199B overexpressing NorA efflux pump assessed as reduction in EtBr MIC at 1/8 times of MIC by resazurin based assay (Rvb= 512 ug/ml).

In brackets after ≈: the same amount, converted by molar mass.

With `C=C1CCC2CC1C2(C)C` (stereo not drawn) [BETA-PINENE], the MIC in the test on Staphylococcus aureus [1] and in the test with Staphylococcus aureus [2] was greater than 1020 µg/mL each time.
On to `O=C(O)/C=C/c1ccc(O)c(O)c1` [CAFFEIC ACID], for which the MIC with Staphylococcus aureus [3], in the test with Staphylococcus aureus [4] and in the test with Staphylococcus aureus [5] was 1020 µg/mL (≈ 5680 µM) throughout.
For the compound `Cc1ccc(C(C)C)cc1O` [CARVACROL], the MIC in test [6] was found to be 32 µg/mL; with Staphylococcus aureus [7] it was 256 µg/mL (≈ 1700 µM); with Staphylococcus aureus [8], 256 µg/mL (≈ 1700 µM); in test [9] it was 64 µg/mL; in test [10], 16 µg/mL; in test [11], 25.4 µg/mL.
As to `COc1cc(-c2cc(=O)c3c(O)cc(O)cc3o2)ccc1O` [CHRYSOERIOL], the “fractional inhibitory concentration index (FICI)” value with Staphylococcus aureus [12] was determined as 0.266. Besides, the MIC in the test on Staphylococcus aureus [13] was 256 µg/mL (≈ 853 µM).
Take `O=C(O)c1cc(O)c(O)c(O)c1` [GALLIC ACID]: the MIC with Staphylococcus aureus [3], in the test with Staphylococcus aureus [4] and in the test on Staphylococcus aureus [5] was 1020 µg/mL (≈ 6020 µM) in each case.
As for `O=c1c(-c2ccc(O)cc2)coc2cc(O)cc(O)c12` [GENISTEIN], the MIC turned out to be 32 µg/mL (≈ 118 µM) in the test with Staphylococcus aureus [14]; 32 µg/mL (≈ 118 µM) in the test with Staphylococcus aureus [15]; 16 µg/mL (≈ 59.2 µM) in test [17]; 32 µg/mL (≈ 118 µM) with Staphylococcus aureus [18]; 32 µg/mL (≈ 118 µM) in the test on Staphylococcus aureus [19]; 32 µg/mL (≈ 118 µM) in the test with Staphylococcus aureus [20]. Besides, the MIC in the test on Staphylococcus aureus [21] turned out to be 8 µg/mL (≈ 29.6 µM). Besides, the “fractional inhibitory concentration index (FICI)” value with Staphylococcus aureus [16] was 0.38.
`CC(C)=CCC/C(C)=C\CO` [NEROL]: the MIC is 16 µg/mL in test [22]; no less than 1020 µg/mL with Staphylococcus aureus [23]; no less than 1020 µg/mL in the test with Staphylococcus aureus [24]; 512 µg/mL (≈ 3320 µM) in the test on Escherichia coli [25]; no less than 1020 µg/mL in the test on Staphylococcus aureus [26]; no less than 1020 µg/mL in the test on Staphylococcus aureus [27]. In addition, the MIC in the test on Candida albicans worked out at 212 µg/mL (≈ 1370 µM); in [28] it was 32 µg/mL (≈ 207 µM).
For the compound `COc1cc2oc(-c3ccc(O)cc3)c(OC)c(=O)c2c(O)c1OC` [PENDULETIN], the “fractional inhibitory concentration index (FICI)” value in the test with Staphylococcus aureus [12] is 0.079. Moreover, the MIC in the test with Staphylococcus aureus [13] is 256 µg/mL (≈ 743 µM).
As to `Cc1ccc(C(C)C)c(O)c1` [THYMOL], the MIC in test [6] was determined as 32 µg/mL; in the test with Staphylococcus aureus [7] it was 256 µg/mL (≈ 1700 µM); in the test on Staphylococcus aureus [8], 256 µg/mL (≈ 1700 µM); in test [9], 64 µg/mL; in test [10] it was 16 µg/mL; in test [11], 25.4 µg/mL.
Take `CC1(C)CC[C@]2(C)CC[C@]3(C)C(=CC[C@@H]4[C@@]5(C)CC[C@H](O)C(C)(C)[C@@H]5CC[C@]43C)[C@@H]2C1` [beta-AMYRIN]: the MIC in the test with Escherichia coli [29] came out at 203 µg/mL; in test [30], 406 µg/mL.
